In article PMC13635228 (Nature Communications, 2026):

Columns and labels:
mouse C3aR = assay: Transducer-coupling assays taken together; format: cell-based
human C3aR = assay: Transducer-coupling assays taken together; format: cell-based
C3aR = details: cited from earlier work

mC3a: full-length recombinant mouse complement anaphylatoxin C3a (S1-R78), expressed in E. coli
potency and efficacy, human vs. mouse C3a (mouse C3aR; mouse C3aR): equally potent and efficacious | efficacy (human C3aR): full agonists

NC(N)=NCCC[C@H](NC(=O)COCC(c1ccccc1)c1ccccc1)C(=O)O [SB290157, reference compound]
agonistic activity (C3aR; various cellular assays, ref [45]-[47]): agonistic activity | activation of mouse C3aR (mouse C3aR; G protein activation or β-arrestin recruitment): did not activate mouse C3aR | agonist profile, G-protein activation (human C3aR; compared to C3a): partial agonist profile | βarr recruitment response (human C3aR; compared to C3a): weak response in βarr recruitment

C3a^-d-Arg: C3a with terminal arginine removed by carboxypeptidases; species not stated
activity at human and mouse C3aR (C3aR; ref [25],[30],[67]): very weak activity

mC3a-d-Arg: mouse C3a with terminal arginine removed
activity (mouse C3aR; mouse C3aR): weak but measurable activity

hC3a: full-length recombinant human complement anaphylatoxin C3a, natural agonist of C3aR, expressed in E. coli
potency and efficacy, human vs. mouse C3a (mouse C3aR; mouse C3aR): equally potent and efficacious | efficacy (human C3aR): full agonists | potency, human vs. mouse C3a (human C3aR): more potent
